In patent US9328122B2, “7-substituted Hanfangichin B derivative, and preparation method and use thereof” (HANGZHOU BENSHENG PHARMACEUTICAL CO., LTD., priority 2012, dated 2016):
Converted amounts (≈) assume the structure as drawn.

Columns and labels:
Assay in all cases: MTT cell growth inhibition, leukemia cells
Assay type in all cases: cell-based, human
[1] = system: H9 (acute lymphoblastic leukemia) cells; details: Homo sapiens, H9, 72 h, MTT; for IC50: read-out: IC50; for IC90: read-out: IC90
Text: (§1) Leukemia cell lines: leukemia cell lines: K562adr (drug-resistant, chronic myeloid leukemia, CML), NB4 (acute promyelocytic leukemia, AML), Kasumi-1 (acute myeloid leukemia M2 type, AML-M2), Jurkat (acute lymphoblastic leukemia, ALL), all of which were donated by Cancer Research Institute of Zhejiang University, China; and H9 (acute lymphoblastic leukemia, ALL), which was purchased from China Center for Type Culture Collection.
(§2) Reagents: The standard sample of fangchinoline (FAN) was purchased from Ci Yuan Biotechnology Co., Ltd., Shaanxi, China; and the 7-substituted fangchinoline derivatives according to the present invention.
(§3) 6000 well-growing leukemia cells were obtained and inoculated into wells of a 96-well cell culture plate. The culture medium was a RPMI-1640 cell culture medium containing 10% fetal bovine serum. After adding the 7-substituted fangchinoline derivatives of different concentrations the next day and mixing uniformly, the plate was placed in a carbon dioxide cell incubator (5% CO2) at 37° C. and incubating for 72 hours. Then the viable cell concentration was determined by the MTT method.

[2] = system: Kasumi-1 (acute myeloid leukemia M2 type) cells; details: for IC50 / IC90: Homo sapiens, Kasumi-1, 72 h, MTT; for IC50: read-out: IC50; for IC90: read-out: IC90
Text: as §1, §2, §3

[3] = system: Jurkat (acute lymphoblastic leukemia) cells; details: Homo sapiens, Jurkat, 72 h, MTT; for IC50: read-out: IC50; for IC90: read-out: IC90
Text: as §1, §2, §3

Structure (SMILES)	IC50 [1]	IC90 [1]	IC50 [2]	IC90 [2]	IC50 [3]	IC90 [3]	anti-Kasumi-1 activity increase over fangchinoline ([2]; relative to fangchinoline, Table 1)
COc1ccc2cc1Oc1ccc(cc1)C[C@H]1c3cc(c(OC)cc3CCN1C)Oc1c(OC(=O)C3CC3)c(OC)cc3c1[C@H](C2)N(C)CC3 [BS-FC-304]	3.6 µg/mL (≈ 5.32 µM)	7.05 µg/mL (≈ 10.4 µM)	1.54 µg/mL (≈ 2.28 µM)	3.94 µg/mL (≈ 5.82 µM)	0.81 µg/mL (≈ 1.2 µM)	2.94 µg/mL (≈ 4.34 µM)	
COc1cc(OC)cc(C(=O)Oc2c(OC)cc3c4c2Oc2cc5c(cc2OC)CCN(C)[C@H]5Cc2ccc(cc2)Oc2cc(ccc2OC)C[C@@H]4N(C)CC3)c1 [BS-FC-311]	1.2 µg/mL (≈ 1.55 µM)	2 µg/mL (≈ 2.59 µM)	0.57 µg/mL (≈ 0.737 µM)	1.85 µg/mL (≈ 2.39 µM)	0.51 µg/mL (≈ 0.66 µM)	0.98 µg/mL (≈ 1.27 µM)	~2 fold
C=CCOc1c(OC)cc2c3c1Oc1cc4c(cc1OC)CCN(C)[C@H]4Cc1ccc(cc1)Oc1cc(ccc1OC)C[C@@H]3N(C)CC2 [BS-FC-213]	2.2 µg/mL (≈ 3.39 µM)	4 µg/mL (≈ 6.17 µM)	0.93 µg/mL (≈ 1.43 µM)	3.66 µg/mL (≈ 5.64 µM)	0.64 µg/mL (≈ 0.986 µM)	3.29 µg/mL (≈ 5.07 µM)	
COc1ccc2cc1Oc1ccc(cc1)C[C@H]1c3cc(c(OC)cc3CCN1C)Oc1c(OS(=O)(=O)c3ccccc3)c(OC)cc3c1[C@H](C2)N(C)CC3 [BS-FC-104]	1 µg/mL (≈ 1.34 µM)	4.99 µg/mL (≈ 6.66 µM)	0.95 µg/mL (≈ 1.27 µM)	3.68 µg/mL (≈ 4.91 µM)	0.45 µg/mL (≈ 0.601 µM)	3.03 µg/mL (≈ 4.05 µM)	
COc1ccc2cc1Oc1ccc(cc1)C[C@H]1c3cc(c(OC)cc3CCN1C)Oc1c(OCc3ccc(C(F)(F)F)cc3)c(OC)cc3c1[C@H](C2)N(C)CC3 [BS-FC-216]	1.8 µg/mL (≈ 2.35 µM)	3.3 µg/mL (≈ 4.3 µM)	3.22 µg/mL (≈ 4.2 µM)	7.22 µg/mL (≈ 9.42 µM)	1.42 µg/mL (≈ 1.85 µM)	2.91 µg/mL (≈ 3.79 µM)	

Continued, in another order:

IC50 [1]	IC90 [1]	IC50 [2]	IC90 [2]	IC50 [3]	IC90 [3]	Structure (SMILES)	anti-Kasumi-1 activity increase over fangchinoline ([2]; relative to fangchinoline, Table 1)
1.3 µg/mL (≈ 1.69 µM)	3.6 µg/mL (≈ 4.69 µM)	1.45 µg/mL (≈ 1.89 µM)	3.63 µg/mL (≈ 4.73 µM)	1.24 µg/mL (≈ 1.61 µM)	5.47 µg/mL (≈ 7.12 µM)	COc1ccc2cc1Oc1ccc(cc1)C[C@H]1c3cc(c(OC)cc3CCN1C)Oc1c(OCC(O)CN3CCSCC3)c(OC)cc3c1[C@H](C2)N(C)CC3 (stereo partly shown) [BS-FC-417]	
1.45 µg/mL (≈ 1.97 µM)	2.9 µg/mL (≈ 3.94 µM)	0.76 µg/mL (≈ 1.03 µM)	1.75 µg/mL (≈ 2.38 µM)	0.56 µg/mL (≈ 0.761 µM)	0.99 µg/mL (≈ 1.35 µM)	COc1ccc2cc1Oc1ccc(cc1)C[C@H]1c3cc(c(OC)cc3CCN1C)Oc1c(OCC(O)CNCC3CC3)c(OC)cc3c1[C@H](C2)N(C)CC3 (stereo partly shown) [BS-FC-405]	
0.9 µg/mL (≈ 1.22 µM)	2 µg/mL (≈ 2.72 µM)	1.46 µg/mL (≈ 1.98 µM)	4.82 µg/mL (≈ 6.55 µM)	1.02 µg/mL (≈ 1.39 µM)	3.33 µg/mL (≈ 4.52 µM)	C=CCN(C)CC(O)COc1c(OC)cc2c3c1Oc1cc4c(cc1OC)CCN(C)[C@H]4Cc1ccc(cc1)Oc1cc(ccc1OC)C[C@@H]3N(C)CC2 (stereo partly shown) [BS-FC-409]	
1.13 µg/mL (≈ 1.48 µM)	2 µg/mL (≈ 2.62 µM)	0.84 µg/mL (≈ 1.1 µM)	1.86 µg/mL (≈ 2.43 µM)	0.64 µg/mL (≈ 0.838 µM)	1.61 µg/mL (≈ 2.11 µM)	COc1ccc2cc1Oc1ccc(cc1)C[C@H]1c3cc(c(OC)cc3CCN1C)Oc1c(OCC(O)CN3CCCC(C)C3)c(OC)cc3c1[C@H](C2)N(C)CC3 (stereo partly shown) [BS-FC-410]	
